Assay [1] deals with T1, GmPOPB_S577A (Galerina marginata, UniProt H2E7Q8, S577A).
T1 construct: His-tag (TEV-cleavable) (cleaved yes); made in house; host or cells: E. coli BL21(DE3)
T1 sequence (H2E7Q8 1-730 S577A): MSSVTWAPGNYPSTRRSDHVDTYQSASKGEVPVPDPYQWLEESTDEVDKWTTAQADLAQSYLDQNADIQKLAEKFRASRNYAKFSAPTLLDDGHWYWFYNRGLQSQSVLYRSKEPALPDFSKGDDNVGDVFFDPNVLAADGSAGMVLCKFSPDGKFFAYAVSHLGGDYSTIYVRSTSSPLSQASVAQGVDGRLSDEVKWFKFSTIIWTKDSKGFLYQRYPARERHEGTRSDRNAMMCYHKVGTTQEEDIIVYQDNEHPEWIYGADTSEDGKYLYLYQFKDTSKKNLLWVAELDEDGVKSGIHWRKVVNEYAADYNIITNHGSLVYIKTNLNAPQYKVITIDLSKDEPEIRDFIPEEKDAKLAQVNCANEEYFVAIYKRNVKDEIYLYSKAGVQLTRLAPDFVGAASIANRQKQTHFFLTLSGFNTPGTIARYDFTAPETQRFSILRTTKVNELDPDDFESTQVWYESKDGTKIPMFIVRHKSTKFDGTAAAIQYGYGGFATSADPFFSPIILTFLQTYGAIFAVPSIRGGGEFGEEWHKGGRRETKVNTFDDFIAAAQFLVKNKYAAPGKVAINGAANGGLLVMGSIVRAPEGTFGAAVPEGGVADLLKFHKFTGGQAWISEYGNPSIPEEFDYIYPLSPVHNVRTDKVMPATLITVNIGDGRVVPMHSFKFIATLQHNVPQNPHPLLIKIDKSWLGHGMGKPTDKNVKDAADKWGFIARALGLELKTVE
Put plainly: ITC binding to inactive mutant GmPOPB_S577A. Particulars: for difference in binding affinity (fold): 13mer versus 35mer, 12 versus 17 amino acid recognition sequence; for binding (in words): concentrations up to 1 mM.
Protocol: GmPOPB peptide ligand solutions were prepared in 20 mM Tris pH 8.0 containing 1 mM DTT, prior to buffer exchange by three cycles of dilution in 50 mM Tris pH 8.0 with 50 mM NaCl, 10 mM DTT followed by concentration using a Microsep Advance centrifugal device equipped with a 1 kDa cut off membrane (Pall Corporation). The same three cycles of dilution in 50 mM Tris pH 8.0 with 50 mM NaCl and 10 mM DTT followed by concentration were performed with the protein to be used in the titration using a Vivaspin protein concentrator spin column with a 30 kDa cut off (GE Healthcare). A final dilution to the concentration to be used for titration was performed using the buffer that passed through during the protein buffer exchange, both for the protein and peptide to be used to avoid any possible buffer mismatch. […] Titrations of peptide into protein solutions were conducted at 20° C. For all the titration experiments, a total of 19 injections of 2 μL were made at 120 s intervals. The heat released due to the first injection (0.4 μL) was excluded from data analyses. […] Equilibrium dissociation constants (Kd) as well as ΔH and ΔS values for binding of each peptide to protein were obtained by fitting the calorimetric data with a single-site model using the stoichiometry parameter n fixed at 1.0 using Malvern PEAQ-ITC data analysis software.
We performed all ITC binding experiments at least in duplicate, and calculations of average and standard error of the mean were performed with GraphPad Prism.

In assay [2] the test system is PCY1. Put plainly: PCY1 macrocyclisation of truncated presegetalin F1 substrates with catalytic peptide. In kind it is biochemical, Saponaria vaccaria. Particulars: for effect of catalytic peptide on rate of PreF1coreT macrocyclisation: substrate PreF1coreT (FSASYSSKPIQT), 500 μM catalytic peptide. The procedure: Initial rate measurements at different substrate concentrations were performed in order to derive steady state kinetics. All reactions were performed with 0.25 μM PCY1 and 25, 50, 100, 200, 400 or 800 μM substrate ([…] or […]). Reactions containing catalytic peptide RNASAPV or DNASAPV were supplemented with 500 μM of each peptide, respectively. Reactions were performed in 20 mM TRIS pH 8.5, 100 mM NaCl, 5 mM DTT at 30° C. Time points were taken at 5, 15, 30, 45 and 60 min. Samples (50 μL) at each time point were quenched with 20 μL of 6% (v/v) TFA and then spun down for 30 min at 3,080×g. Samples were analysed via LC/MS (ZORBAX SBC18, 5 μm, 9.4 mm×50 mm (Agilent) column connected to an Agilent LC-MS instrument (G6130B Single Quad, Agilent Technologies)) using 0.1% (v/v) formic acid and a gradient of acetonitrile (5%-95%). Extracted ion count peaks for corresponding product (A[[…]]) masses ([M]: 954.44, [M]+H^+: 955.44 and [M]+Na^+: 977.44) were integrated and converted in corresponding product concentration using an ion count v. [product] calibration curve. Product concentration time courses were analysed with linear regression and slopes were plotted as a function of substrate concentrations (Michaelis Menten plot), deriving steady state kinetic parameters shown in FIGS. 7 to 9.
Sequence of PCY1 (as listed by the source): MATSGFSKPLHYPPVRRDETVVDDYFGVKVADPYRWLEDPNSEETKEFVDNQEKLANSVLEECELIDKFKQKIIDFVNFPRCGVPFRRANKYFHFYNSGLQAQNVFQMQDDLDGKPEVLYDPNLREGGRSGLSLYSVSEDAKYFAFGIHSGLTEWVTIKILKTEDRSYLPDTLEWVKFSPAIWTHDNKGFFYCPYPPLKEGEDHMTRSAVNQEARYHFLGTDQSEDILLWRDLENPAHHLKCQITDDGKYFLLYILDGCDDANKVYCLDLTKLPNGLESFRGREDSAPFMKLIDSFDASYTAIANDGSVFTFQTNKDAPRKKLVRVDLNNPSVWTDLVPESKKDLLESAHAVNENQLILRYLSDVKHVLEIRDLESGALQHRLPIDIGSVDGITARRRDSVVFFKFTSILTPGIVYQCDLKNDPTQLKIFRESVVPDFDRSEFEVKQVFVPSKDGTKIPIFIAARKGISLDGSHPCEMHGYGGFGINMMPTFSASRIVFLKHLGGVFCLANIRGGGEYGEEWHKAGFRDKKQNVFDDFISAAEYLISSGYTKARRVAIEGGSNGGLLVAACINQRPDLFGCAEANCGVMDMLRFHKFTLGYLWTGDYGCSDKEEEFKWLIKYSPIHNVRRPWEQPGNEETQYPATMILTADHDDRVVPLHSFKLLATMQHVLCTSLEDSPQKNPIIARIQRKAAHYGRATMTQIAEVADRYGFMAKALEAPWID

The subject of assay [3] is PCY1. Put plainly: LC/MS steady-state kinetics of macrocyclisation by PCY1. In kind it is biochemical, Saponaria vaccaria. Particulars: LC/MS (ion counts), 30° C.; read-out: Km (table head prints Kin). The procedure: All kinetic measurements (activity tests, progress curves and initial-rate experiments) were performed as discontinuous assays analyzing samples via LC/MS or MALDI (10-mer activity test). Reactions were performed in 20 mM Tris pH 8.5, 100 mM NaCl, 5 mM DTT (for progress curves 0.2 mg mL-1 BSA was included).17 Reactions were performed at 30° C. and at various time points 50 μL samples were quenched with 20 μL of 6% (v/v) TFA. Samples (50 μL) were loaded onto a ZORBAX SBC18, 5 μm, 9.4 mm×50 mm (Agilent) column connected to an Agilent LC-MS instrument (G6130B Single Quad, Agilent Technologies). Reactants were separated from products using a gradient from A (H2O with 0.1% formic acid) to 80% B (acetonitrile), at a rate of 1.5 mL/min for 8.75 min. For data analysis, ion count peaks and UV absorbance peaks were integrated using Agilent ChemStation software. For data analysis involving quantitative mass spec integration, calibration curves with macrocyclic peptide product were performed in triplicate in order to linearly correlate ion counts to cyclic product concentration. Data fitting and plotting was performed with Prism 6.
PCY1 extracted from S. vaccaria seeds has been previously described to have a turnover number of ˜1 h^−1 for PresegA1.^17 The enzyme produced heterologously in E. coli was evaluated by LC/MS-based time course experiments macrocyclizing 200 μM of PresegA1, PresegB1 or PresegF1 with 3.6 μM PCY1. These substrates were chosen as they produce 6, 5 and 9 residue macrocycles, respectively, show variability in the length of the C-terminal tail sequence, and have a different C-terminal core residue (proline in PresegF1, alanine in the other two) (FIG. 1b). PresegB1 was completely macrocyclized in ˜30 min, PresegA1 in ˜50 min and PresegF1 in >3 h (FIG. 2a). We chose to investigate the slowest and fastest substrate by steady-state kinetics using an LC/MS assay and UV280 nm quantification. […] Under the ITC conditions, the measured kcat (0.14±0.01 s^−1) was a factor of three lower than the LC/MS derived values. […] Therefore, we resorted to an LC/MS assay followed by quantification using mass ion counts, relying on a calibration curve employing the macrocyclic peptide product as a standard (FIG. 2b).

The target of assay [4] is PCY1:S562A. Put plainly: ITC equilibrium binding to PCY1:S562A. On the set-up: species or system Saponaria vaccaria. As to the method: All PCY1 samples were buffer-exchanged or solubilized into buffer F and further diluted in the same batch of buffer F, in order to minimize buffer mismatches. ITC binding experiments were performed using a cell solution containing PCY1:S562A and a titrant solution with each peptide used. […] The measurements were performed at a stir speed of 750 rpm at 25° C. using a reference power of 10 μcal/s, except for A1-NH2 (5 μcal/s). A buffer titration control in which peptide was titrated into buffer was performed for each experiment. Data processing, fitting to a non-linear one-site binding model, and data plotting was performed using MicroCal PEAQ ITC analysis software (Malvern). […] The measurement was performed in buffer at 30° C., at 750 rpm using a reference power of 5 μcal/s.
Sequence of PCY1:S562A (as listed by the source, stated change not applied): as the sequence (as listed by the source) above, with S562A counted along it

In assay [5] the target is T2, GmPOPB (Galerina marginata, UniProt H2E7Q8).
T2 construct: His-tag (TEV-cleavable) (cleaved yes); host or cells: E. coli BL21(DE3)
Put plainly: GmPOPB kinetic assays (LC-MS). The class given is biochemical. Particulars: room temperature. As to the method:
Comparison between distinct GmPOPB substrates was performed in 50 mM Tris pH 8.0, 50 mM NaCl, 10 mM DTT with varying concentrations of substrates at room temperature. All reactions were performed in duplicates. Reactions were started by adding GmPOPB (50 nM for GmAMA1_C6S, 1 μM for the 13mer and 14mer, and 20 nM for other substrates) to the assay mixture containing buffer and peptide. Reactions were quenched at several time points by adding 50 μL reaction mixture to 20 μL 6% TFA. Reactants were separated from products for quantification by injecting 50 μL of each quenched time point mix onto a ZORBAX SB-C18, 5 μm, 9.4×50 mm (Agilent) column connected to an Agilent LC-MS (G6130B Single Quad, Agilent Technologies). Reactants were separated from products using a gradient from H2O containing 0.1% TFA or 0.1% formic acid and 5% acetonitrile to 50% acetonitrile, at 1.5 ml/min for 8 min. Peaks with ultra violet (UV) absorbance at 220 and 280 nm were integrated, the area of peaks corresponding to reactant and products was used to calculate the percentage of product formed after a correction for differences in the extinction coefficient of each peptide was applied (ε280-25mer=11,000M-1 cm-1, ε220-25mer=46,000M-1 cm-1, ε280-cyclic=5500M-1 cm-1, ε220-cyclic=34,000M-1 cm-1, and ε280-tail=5500M-1 cm-1). The sum of product+substrate was assumed equal to the total initial amount of substrate, product converted from % to concentration. This value was divided by concentration of enzyme present to yield v/Et (min-1). When enzyme mutants and peptides containing alanine in the core region were tested for activity, higher concentrations 5 μM enzyme and 100 μM substrate were incubated for 1 and 18 h at room temperature. For progress curves with the 35mer substrate, measurements were triplicate and quantification relied on ion counts from mass spectrometry. […] Authentic macrocyclic peptide was quantified by UV absorbance. Data showing products formed after 1 and 16 h with truncated peptides were performed twice. […] Kinetic data were fitted to a Michaelis-Menten equation using GraphPad Prism, and values reported are average and standard error of the mean.

Where [6] appears, read: ITC, 20° C., S577A mutant, read-out: Kd.

Values joined by “and” are separate entries in the source; they are usually repeats but may differ in a detail not shown here. Equal entries are not always repeated. “Also recorded” adds a separate entry of the source. Where two headings read alike, the source gives them in different places. No end group written: not given here.

Turning to `CC[C@H](C)[C@H](NC(=O)CNC(=O)[C@H](Cc1c[nH]c2ccccc12)NC(=O)[C@@H](NC(=O)[C@@H]1CCCN1C(=O)[C@H](CC(C)C)NC(=O)[C@H](CCCNC(=N)N)NC(=O)[C@@H](NC(=O)[C@H](C)NC(=O)[C@H](CC(N)=O)NC(=O)[C@@H](NC(=O)[C@H](CC(=O)O)NC(=O)[C@H](Cc1ccccc1)NC(=O)[C@@H](N)CCSC)[C@@H](C)O)[C@@H](C)O)[C@@H](C)CC)C(=O)NCC(=O)N[C@@H](CS)C(=O)N[C@@H](CC(N)=O)C(=O)N1CCC[C@H]1C(=O)N[C@@H](Cc1c[nH]c2ccccc12)C(=O)N[C@H](C(=O)N[C@@H](C)C(=O)N[C@@H](CCC(=O)O)C(=O)N[C@@H](Cc1c[nH]cn1)C(=O)N[C@H](C(=O)N[C@@H](CC(=O)O)C(=O)N[C@@H](CCC(N)=O)C(=O)N[C@H](C(=O)N[C@@H](CC(C)C)C(=O)N[C@@H](C)C(=O)N[C@@H](CO)C(=O)NCC(=O)N[C@@H](CC(N)=O)C(=O)N[C@@H](CC(=O)O)C(=O)N[C@H](C(=O)N[C@@H](CS)C(=O)O)[C@@H](C)CC)[C@@H](C)O)C(C)C)[C@@H](C)O` [35mer, reference compound], the Kd in assay [1] (setting [6]) is 0.12 ± 0.03 µM. Take DNASAPV [catalytic peptide for PCY1]: the “effect of catalytic peptide on rate of PreF1coreD macrocyclisation” value in assay [2] (substrate PreF1coreD (FSASYSSKPIQD), mismatched catalytic peptide) is “reduces the rate”. In the case of FSASYSSKPIQT [PresegF1-truncated], the Michaelis constant (Km) in assay [3] came to 227 µM. The “Kd (in words)” value in assay [4] (poor peptide solubility at high concentrations) is on record as “too high to be accurately measured”.

Regarding H-IWGIGCNPWT [10mer], in assay [1] (setting [6]), the Kd came out at 83 ± 17 µM.

On to H-IWGIGCNPWTA [11mer], for which the Kd in assay [1] (setting [6]) was 39 ± 18 µM.

For the compound H-IWGIGCNPWTAE [12mer], the equilibrium dissociation constant (Kd) in assay [1] (setting [6]) was found to be 21 ± 5 µM.

For the compound H-IWGIGCNPWTAEH [13mer], in assay [5], the Km was found to be 25 µM and the kcat was 0.00817 s⁻¹. Also, the “difference in binding affinity (fold)” value in assay [1] was ~20 fold and 10 fold. For the same compound, the Kd in assay [1] (setting [6]) was determined as 2.4 ± 0.1 µM. As for H-IWGIGCNPWTAEHV [14mer], in assay [5], the Km came out at 380 µM and the kcat was found to be 0.00967 s⁻¹. The equilibrium dissociation constant (Kd) in assay [1] (setting [6]) was found to be 9.5 ± 1.1 µM. MFDTNATRLP [reference compound]: the “binding (in words)” value in assay [1] (ITC) was “no detectable binding”; in assay [1] (ITC, listed as 10-residue leader), “does not bind”; in assay [1] (ITC, listed as leader) it was “does not bind”. In the case of “PresegD1: native linear PCY1 substrate presegetalin D1 (GLSFAFPAKDAENASSPV)”, the dissociation constant Kd in assay [4] (ITC, 25° C.) is approximately 0.2 µM. RAANSAPV [catalytic peptide for PCY1]: the “effect of catalytic peptide on rate of PreF1coreT macrocyclisation” value in assay [2] is “increase in the rate”. On the same count and under the same terms, the entry for RANASAPV [catalytic peptide for PCY1] is “increase in the rate”; for RASAPV it is “increase in the rate”; for RGANASAPV [catalytic peptide for PCY1] it is “increase in the rate”. Same read-out and setting: the entry for RGGNASAPV [catalytic peptide for PCY1] is “increase in the rate”; for RGNASAPV [catalytic peptide for PCY1] it is “increase in the rate”; for RNASAPV [catalytic peptide for PCY1] it is “increases the rate; also recorded: increase in the rate”. With TLASGNDIC [9mer-recogSeq], the Kd in assay [1] is 121 ± 19 µM. As to VDQTLASGNDIC [12mer-recogSeq], in assay [1], binding was characterised by a dissociation constant (Kd) of 5 ± 1 µM and the “difference in binding affinity (fold)” value came to 20 fold.

The term Kd denotes a measure of binding affinity in units of concentration. Broadly, the Km is the substrate concentration at which the rate is half of its maximum. For orientation: kcat means the maximal rate divided by the concentration of active sites.

(Values after US20200291444A1, “Macrocyclisation Tags” (Oxford University Innovation LTD, priority 2017, published 2020).)
